Results reported in ChEMBL document CHEMBL3244089, “Structure-activity studies on hallucinogenic amphetamines using molecular connectivity” (1977).

Key:
[1] = species on record: Homo sapiens; experiment: Hallucinogenic activity in human relative to mescaline; assay type: functional
[2] = species on record: Homo sapiens; experiment: Hallucinogenic activity in human; assay type: functional

| Structure (SMILES) | Ratio [1] | log(activity) [2] |
| --- | --- | --- |
| COc1ccc(CCN)cc1 | 1 | – |
| COc1cc(CC(C)N)c(OC)c(OC)c1 (stereo not given) | – | 0.63 |
| COc1cc2c(cc1CC(C)N)OCO2 (stereo not given) | – | 1.08 |
| COc1c(CCN)ccc2c1OCO2 | 5 | – |
| COc1cc(CC(C)N)c(OC)c(OC)c1OC (stereo not given) | – | 0.86 |
| COc1ccc(OC)c(OC)c1CC(C)N (stereo not given) | – | 1.14 |
| COc1cc(CC(C)N)c(OC)c2c1OCO2 (stereo not given) | – | 1.13 |
| COc1cc(CC(C)N)cc2c1OCO2 (stereo not given) | – | 0.43 |
| COc1c(CC(C)N)ccc2c1OCO2 (stereo not given) | 1 | 1 |
| COc1ccc(CC(C)N)c2c1OCO2 (stereo not given) | – | 0.48 |
| CCCCCc1cc(OC)c(CC(C)N)cc1OC (stereo not given) | – | 1.09 |
| COc1ccc(CCN)cc1OC | 0.2 | – |
| COc1ccc(CC(C)N)cc1OC (stereo not given) | 2 | – |
| COc1ccc(CC(C)N)c(OC)c1 (stereo not given) | – | 0.67 |
| COc1cc(CC(C)N)cc(OC)c1OC (stereo not given) | – | 0.37 |
| COc1ccc(CC(C)N)c(OC)c1OC (stereo not given) | 2 | – |
| CCOc1cc(CC(C)N)c(OC)cc1OC (stereo not given) | 7 | – |

| Structure (SMILES) | Ratio [1] | log(activity) [2] |
| --- | --- | --- |
| CCOc1cc2c(cc1CC(C)N)OCO2 (stereo not given) | 7 | – |
| COc1cc(CCN)c2c(c1)OCO2 | 1 | – |
| COc1cc(OC)c(CC(C)N)c(OC)c1 (stereo not given) | – | 1.03 |
| COc1cc(OC)c(OC)cc1CCN | 1 | – |
| CN(C)CCc1c[nH]c2cc(O)ccc12 | 25 | – |
| COc1c(CC(C)N)cc2c(c1OC)OCO2 (stereo not given) | – | 0.75 |
| CCCCc1cc(OC)c(CC(C)N)cc1OC (stereo not given) | – | 1.63 |
| CCc1cc(OC)c(CC(C)N)cc1OC (stereo not given) | – | 2.01 |
| CCOc1cc(OC)c(CC(C)N)cc1OC (stereo not given) | – | 1.22 |
| COc1cc(OC)c(OC)cc1CC(C)N (stereo not given) | – | 1.26 |
| CCCc1cc(OC)c(CC(C)N)cc1OC (stereo not given) | – | 1.94 |
| COc1ccc(OC)c(CC(C)N)c1 (stereo not given) | – | 0.87 |
| COc1cc(CC(C)N)c(OC)cc1Br (stereo not given) [BROLAMFETAMINE] | – | 2.71 |
| COc1cc(CC(C)N)c(OC)cc1C (stereo not given) [DOM] | – | 1.89 |
| COc1ccc(CC(C)N)cc1 (stereo not given) [PARA-METHOXYAMPHETAMINE] | – | 0.59 |
| CN(C)CCc1c[nH]c2cccc(O)c12 [PSILOCIN] | 32 | – |
| CC(N)Cc1ccc2c(c1)OCO2 (stereo not given) [TENAMFETAMINE] | – | 0.41 |
